From ChEMBL document CHEMBL1140644, “New modifications to the area of pyrazole-naphthyl urea based p38 MAP kinase inhibitors that bind to the adenine/ATP site” (Bioorg Med Chem Lett, 2007)
Activity calls are given as the source filed them. No cut-off for these calls is given here.

Columns and labels:
[1] = test system: THP-1; assay: Inhibition of LPS-induced TNFalpha production in THP1 cells; format: functional, cell-based; settings: Homo sapiens
[2] = test system: Blood; assay: Inhibition of LPS-induced TNFalpha production in human whole blood; format: functional, tissue-based
[3] = test system: Mus musculus; assay: Inhibition of LPS-induced TNFalpha production in mouse at 3 mg/kg after 1 hr; format: functional
[4] = test system: Mus musculus; assay: Inhibition of LPS-induced TNFalpha production in mouse at 10 mg/kg after 1 hr; format: functional
[5] = Lipophilicity, log D at pH 7.4; format: physicochemical; settings: buffer
[6] = target: RAF proto-oncogene serine/threonine-protein kinase (Homo sapiens, UniProt P04049); assay: Inhibition of cRaf
Sequence of RAF proto-oncogene serine/threonine-protein kinase (P04049 whole entry): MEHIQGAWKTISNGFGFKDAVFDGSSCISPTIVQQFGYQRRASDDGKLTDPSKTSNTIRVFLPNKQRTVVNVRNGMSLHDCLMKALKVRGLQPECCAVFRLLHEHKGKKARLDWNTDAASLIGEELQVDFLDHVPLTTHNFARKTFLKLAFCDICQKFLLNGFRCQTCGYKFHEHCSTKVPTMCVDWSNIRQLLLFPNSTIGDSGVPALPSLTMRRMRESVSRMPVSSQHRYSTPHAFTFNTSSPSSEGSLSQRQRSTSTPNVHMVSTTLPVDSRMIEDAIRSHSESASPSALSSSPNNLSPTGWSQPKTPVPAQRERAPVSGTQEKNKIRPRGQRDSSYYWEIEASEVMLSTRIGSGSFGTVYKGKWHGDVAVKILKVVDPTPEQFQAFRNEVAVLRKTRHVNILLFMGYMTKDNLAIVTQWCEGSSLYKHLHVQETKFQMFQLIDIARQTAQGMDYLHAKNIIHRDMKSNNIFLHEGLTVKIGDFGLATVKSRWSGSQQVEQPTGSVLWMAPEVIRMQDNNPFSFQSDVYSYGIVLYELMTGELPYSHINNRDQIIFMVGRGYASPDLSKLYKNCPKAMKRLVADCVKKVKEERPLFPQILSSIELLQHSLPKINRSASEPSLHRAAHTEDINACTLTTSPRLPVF

[7] = target: Tyrosine-protein kinase Lyn (Homo sapiens, UniProt P07948); assay: Inhibition of Lyn
Sequence of Tyrosine-protein kinase Lyn (P07948 whole entry): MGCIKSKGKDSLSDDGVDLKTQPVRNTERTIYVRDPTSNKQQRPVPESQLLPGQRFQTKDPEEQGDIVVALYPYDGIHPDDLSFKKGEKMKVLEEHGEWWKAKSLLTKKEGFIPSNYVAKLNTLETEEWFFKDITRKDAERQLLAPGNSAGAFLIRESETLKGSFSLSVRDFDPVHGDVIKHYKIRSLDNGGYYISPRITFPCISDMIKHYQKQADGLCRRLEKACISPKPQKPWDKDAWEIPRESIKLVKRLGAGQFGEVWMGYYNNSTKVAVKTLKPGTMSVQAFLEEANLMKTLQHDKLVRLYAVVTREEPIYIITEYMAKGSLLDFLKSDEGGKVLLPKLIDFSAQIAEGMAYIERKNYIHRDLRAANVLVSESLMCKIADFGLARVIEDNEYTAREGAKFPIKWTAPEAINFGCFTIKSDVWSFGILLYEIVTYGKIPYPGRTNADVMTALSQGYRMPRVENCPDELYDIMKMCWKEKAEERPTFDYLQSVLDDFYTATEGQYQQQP

[8] = target: Tyrosine-protein kinase ABL1 (Homo sapiens, UniProt P00519); assay: Inhibition of Abl
Sequence of Tyrosine-protein kinase ABL1 (P00519 whole entry): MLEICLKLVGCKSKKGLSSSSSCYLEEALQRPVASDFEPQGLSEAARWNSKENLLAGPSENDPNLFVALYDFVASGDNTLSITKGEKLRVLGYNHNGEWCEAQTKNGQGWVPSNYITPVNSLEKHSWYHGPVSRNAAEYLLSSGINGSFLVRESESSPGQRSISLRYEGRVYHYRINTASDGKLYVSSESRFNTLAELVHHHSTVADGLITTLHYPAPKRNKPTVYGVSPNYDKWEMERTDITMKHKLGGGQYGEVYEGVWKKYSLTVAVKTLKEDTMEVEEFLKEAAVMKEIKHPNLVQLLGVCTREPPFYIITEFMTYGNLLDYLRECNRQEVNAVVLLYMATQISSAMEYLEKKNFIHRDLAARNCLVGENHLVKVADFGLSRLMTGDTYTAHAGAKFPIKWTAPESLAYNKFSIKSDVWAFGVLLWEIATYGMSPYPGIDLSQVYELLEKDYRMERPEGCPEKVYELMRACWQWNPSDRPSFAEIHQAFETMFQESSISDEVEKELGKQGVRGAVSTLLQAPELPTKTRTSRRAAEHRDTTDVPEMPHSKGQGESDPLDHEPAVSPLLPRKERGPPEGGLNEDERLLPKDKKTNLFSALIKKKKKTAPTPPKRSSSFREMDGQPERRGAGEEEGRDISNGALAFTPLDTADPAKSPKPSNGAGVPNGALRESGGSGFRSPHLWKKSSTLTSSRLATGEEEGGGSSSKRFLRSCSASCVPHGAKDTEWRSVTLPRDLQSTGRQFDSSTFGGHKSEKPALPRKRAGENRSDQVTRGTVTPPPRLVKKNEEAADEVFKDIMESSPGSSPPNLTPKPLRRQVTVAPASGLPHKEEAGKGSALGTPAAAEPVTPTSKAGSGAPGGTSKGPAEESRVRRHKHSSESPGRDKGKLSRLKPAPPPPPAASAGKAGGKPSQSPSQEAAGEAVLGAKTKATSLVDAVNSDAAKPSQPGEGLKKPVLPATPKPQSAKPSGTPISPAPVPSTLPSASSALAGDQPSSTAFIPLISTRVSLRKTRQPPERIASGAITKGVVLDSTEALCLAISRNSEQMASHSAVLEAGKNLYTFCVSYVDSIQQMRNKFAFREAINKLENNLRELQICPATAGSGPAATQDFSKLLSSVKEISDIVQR

[9] = target: Proto-oncogene tyrosine-protein kinase Src (Homo sapiens, UniProt P12931); assay: Inhibition of Src
Sequence of Proto-oncogene tyrosine-protein kinase Src (P12931 2-536 limits assumed): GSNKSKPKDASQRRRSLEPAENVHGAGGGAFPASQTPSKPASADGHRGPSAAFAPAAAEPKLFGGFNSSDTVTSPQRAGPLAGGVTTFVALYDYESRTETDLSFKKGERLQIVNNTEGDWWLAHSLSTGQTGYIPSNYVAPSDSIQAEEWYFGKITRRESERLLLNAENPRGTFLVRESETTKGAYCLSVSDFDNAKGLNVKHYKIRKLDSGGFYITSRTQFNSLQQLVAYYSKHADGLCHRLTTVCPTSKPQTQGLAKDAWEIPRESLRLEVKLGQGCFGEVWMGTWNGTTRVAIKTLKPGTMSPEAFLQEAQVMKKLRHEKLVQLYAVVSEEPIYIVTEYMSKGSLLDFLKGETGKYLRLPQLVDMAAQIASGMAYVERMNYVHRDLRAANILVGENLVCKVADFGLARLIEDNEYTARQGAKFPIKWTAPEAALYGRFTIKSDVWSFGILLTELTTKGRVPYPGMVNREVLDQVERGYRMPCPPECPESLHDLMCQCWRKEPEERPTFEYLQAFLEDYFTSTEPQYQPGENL

[10] = target: Mitogen-activated protein kinase 9 (Homo sapiens, UniProt P45984); assay: Inhibition of Jnk2
Sequence of Mitogen-activated protein kinase 9 (P45984 whole entry): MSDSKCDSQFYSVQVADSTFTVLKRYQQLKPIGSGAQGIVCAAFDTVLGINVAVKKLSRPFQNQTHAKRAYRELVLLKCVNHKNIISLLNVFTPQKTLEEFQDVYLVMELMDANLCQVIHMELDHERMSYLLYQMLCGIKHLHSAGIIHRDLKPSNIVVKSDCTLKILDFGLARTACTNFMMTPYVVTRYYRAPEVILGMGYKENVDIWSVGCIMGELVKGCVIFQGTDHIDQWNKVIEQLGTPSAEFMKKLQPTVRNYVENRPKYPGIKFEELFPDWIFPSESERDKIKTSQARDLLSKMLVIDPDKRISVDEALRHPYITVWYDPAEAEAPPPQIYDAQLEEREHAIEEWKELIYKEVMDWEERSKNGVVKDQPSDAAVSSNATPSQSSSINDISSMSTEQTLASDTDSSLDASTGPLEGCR

[11] = organism: Homo sapiens; assay: Protein binding in human plasma by equilibrium dialysis; settings: read-out: PPB

| SMILES | IC50 [1] [nM] | IC50 [2] [nM] | further results |
| --- | --- | --- | --- |
| Cc1ccc(-n2nc(C(C)(C)C)cc2NC(=O)Nc2ccc(-c3ccccc3)c3ccccc23)cc1 | 1430 | > 15000 | – |
| Cc1ccc(-n2nc(C(C)(C)C)cc2NC(=O)Nc2ccc(-c3ccc(CN4CCOCC4)cn3)c3ccccc23)cc1 | 26 | 590 | logD [5]: 5.2 |
| Cc1ccc(-n2nc(C(C)(C)C)cc2NC(=O)Nc2cccc3ccccc23)cc1 | 320 | > 15000 | – |
| Cc1ccc(-n2nc(C(C)(C)C)cc2NC(=O)Nc2ccc(-c3cccc(CN4CCOCC4)c3)c3ccccc23)cc1 | 56 | 3900 | – |
| Cc1ccc(-n2nc(C(C)(C)C)cc2NC(=O)Nc2ccc(-c3ccc(CN4CCOCC4)nc3)c3ccccc23)cc1 | 9 | 230 | IC50 [6]: 400 nM; IC50 [7]: 1000 nM; IC50 [8]: 1000 nM; IC50 [9]: 1000 nM; IC50 [10]: 2 nM; logD [5]: 5.2; Activity [3]: inactive; inhibition in vivo at 10 mg/kg [4]: 74% |
| Cc1ccc(-n2nc(C(C)(C)C)cc2NC(=O)Nc2ccc(-c3cccc(N4CCOCC4)c3)c3ccccc23)cc1 | 1350 | > 15000 | – |
| Cc1ccc(-n2nc(C(C)(C)C)cc2NC(=O)Nc2ccc(OCCN3CCOCC3)c3ccccc23)cc1 [DORAMAPIMOD] | – | – | logD [5]: 4.3; inhibition in vivo at 10 mg/kg [4]: 63% |
| Cn1nc(C(C)(C)C)cc1NC(=O)Nc1ccc(-c2ccc(CN3CCOCC3)nc2)c2ccccc12 | 32 | 950 | Activity [4]: inactive |
| Cc1ccc(-n2nc(C(C)(C)C)cc2NC(=O)Nc2ccc(-c3ccc(CN4CCN(C)CC4)cc3)c3ccccc23)cc1 | 46 | 3600 | – |

More lines, main results first:

| IC50 [1] [nM] | IC50 [2] [nM] | SMILES | further results |
| --- | --- | --- | --- |
| 11 | 200 | Cc1ccc(-n2nc(C(C)(C)C)cc2NC(=O)Nc2ccc(-c3ccc(CN4CCOCC4)nc3)c3ccccc23)cn1 | inhibition in vivo at 3 mg/kg [3]: 50%; inhibition in vivo at 10 mg/kg [4]: 86% |
| 390 | – | Cc1ccc(-n2nc(C(C)(C)C)cc2NC(=O)Nc2ccc(-c3ccco3)c3ccccc23)cc1 | – |
| 70 | 6400 | Cc1ccc(-n2nc(C(C)(C)C)cc2NC(=O)Nc2ccc(-c3ccc(CN4CCOCC4)o3)c3ccccc23)cc1 | – |
| 11 | 90 | Cn1cc(-n2nc(C(C)(C)C)cc2NC(=O)Nc2ccc(-c3ccc(CN4CCOCC4)nc3)c3ccccc23)cn1 | inhibition in vivo at 3 mg/kg [3]: 73% |
| 56 | 1700 | Cc1ccc(-n2nc(C(C)(C)C)cc2NC(=O)Nc2ccc(-c3ccc(CCN4CCOCC4)cc3)c3ccccc23)cc1 | – |
| 14 | 160 | Cc1ncc(-n2nc(C(C)(C)C)cc2NC(=O)Nc2ccc(-c3ccc(CN4CCOCC4)nc3)c3ccccc23)cn1 | inhibition in vivo at 3 mg/kg [3]: 85%; fraction unbound [11]: < 0.03; inhibition in vivo at 10 mg/kg [4]: 95% |
| 470 | > 15000 | Cc1ccc(-n2nc(C(C)(C)C)cc2NC(=O)Nc2ccc(-c3ccc(N4CCOCC4)cc3)c3ccccc23)cc1 | – |
| 36 | 1100 | Cc1ccc(-n2nc(C(C)(C)C)cc2NC(=O)Nc2ccc(-c3ccc(CN4CCOCC4)cc3)c3ccccc23)cc1 | – |
| 104 | 9200 | Cc1ccc(-n2nc(C(C)(C)C)cc2NC(=O)Nc2ccc(-c3ccc(CN(C)C)cc3)c3ccccc23)cc1 | – |
